In publication PMC8162746 (Cancer chemotherapy and pharmacology, 2021):
Several values for one entry are separate records, joined by “and”; a condition that tells them apart may be missing. Equal values may be shown once. Read-outs that look alike come from different tables or passages of the source.

Legend:
[1] = tested on: patients with primary CNS and advanced solid tumors; assay: Phase I dose-escalation trial of oral AR-42: safety and tolerability; format: in vivo
[2] = tested on: primary CNS and advanced solid tumors; assay: Phase I trial: response evaluation; format: in vivo, human
[3] = Plasma pharmacokinetics, LC-MS/MS, non-compartmental analysis; format: in vivo, human; details: for AUC / Cmax: oral; for AUC: Median AUC; for Cmax: Median Cmax
[4] = cited from earlier work
[5] = tested on: Burkitt lymphoma mouse models; details: cited from earlier work
[6] = tested on: xenograft and allograft schwannoma; details: cited from earlier work
[7] = tested on: schwannoma and meningioma cell lines; details: cited from earlier work
[8] = tested on: patients with multiple myeloma and T- and B-cell lymphomas; details: cited from earlier work
[9] = human, plasma, patients without grade 3 or 4 toxicity

In the case of `CC(C)[C@H](C(=O)Nc1ccc(C(=O)NO)cc1)c1ccccc1` [AR-42], the “Nausea, treatment-related adverse event, Grade 1–2” value ([1]; N=17, 30-80 mg) is reported as 8 (47.1%) n (%), the “Nausea, treatment-related adverse event, Grade 3–4” value ([1]; N=17, 30-80 mg) is reported as 2 (11.8%) n (%) and the “Neutropenia, treatment-related adverse event, All grades” value ([1]; N=17, 30-80 mg) is reported as 7 n (%) and 7 (41.2%) n (%). For the same compound, the “Neutropenia, treatment-related adverse event, Grade 1–2” value ([1]; N=17, 30-80 mg) was 7 (41.2%) n (%), the “Psychiatric disorder, treatment-related adverse event, All grades” value ([1]; N=17, 30-80 mg) was 1 (5.9%) n (%) and the “Psychiatric disorder, treatment-related adverse event, Grade 3–4” value ([1]; N=17, 30-80 mg) was 1 (5.9%) n (%). For the same compound, the “Thrombocytopenia, treatment-related adverse event, All grades” value ([1]; N=17, 30-80 mg) was 13 (76.5%) n (%), the “Thrombocytopenia, treatment-related adverse event, Grade 1–2” value ([1]; N=17, 30-80 mg) was 8 (47.1%) n (%) and the “Thrombocytopenia, treatment-related adverse event, Grade 3–4” value ([1]; N=17, 30-80 mg) was 5 (29.4%) n (%). For the same compound, the “Thromboembolic event, treatment-related adverse event, All grades” value ([1]; N=17, 30-80 mg) was 1 (5.9%) n (%), the “Thromboembolic event, treatment-related adverse event, Grade 3–4” value ([1]; N=17, 30-80 mg) was 1 (5.9%) n (%) and the “Vomiting, treatment-related adverse event, All grades” value ([1]; N=17, 30-80 mg) was 4 (23.5%) n (%). The “Vomiting, treatment-related adverse event, Grade 1–2” value ([1]; N=17, 30-80 mg) was 4 (23.5%) n (%), the “Weight loss, treatment-related adverse event, All grades” value ([1]; N=17, 30-80 mg) was 3 (17.6%) n (%) and the “Weight loss, treatment-related adverse event, Grade 1–2” value ([1]; N=17, 30-80 mg) was 2 (11.8%) n (%). The “Weight loss, treatment-related adverse event, Grade 3–4” value ([1]; N=17, 30-80 mg) was 1 (5.9%) n (%), the “Only grade 4 TRAE” value ([1]; at the 80 mg dose) was “psychosis” and the “No. of dose delays” value ([1]; dose level 1A, 30 mg) was 0. The “No. of dose reductions” value ([1]; dose level 1A, 30 mg) was 0, the “Description of DLT” value ([1]; dose level 1B, 60 mg) was “Thrombocytopenia (grade 3)” and the “No. of dose delays” value ([1]; dose level 1B, 60 mg) was 4. For the same compound, the “No. of dose reductions” value ([1]; dose level 1B, 60 mg) was 2, the “No. of patients with a DLT” value ([1]; dose level 1B, 60 mg, 7 patients) was 1 and the “No. of dose delays” value ([1]; dose level 2A, 60 mg) was 0. For the same compound, the “No. of dose reductions” value ([1]; dose level 2A, 60 mg) was 0, the “No. of patients with a DLT” value ([1]; dose level 2A, 60 mg, 2 patients) was 0 and the “No. of dose delays” value ([1]; dose level 2B, 80 mg) was 0. The “No. of dose reductions” value ([1]; dose level 2B, 80 mg) was 0, the “No. of patients with a DLT” value ([1]; dose level 2B, 80 mg, 2 patients) was 1 and the “Patients who developed a grade 4 toxicity” value ([1]; during cycle one, N=17) was 5.9%. For the same compound, the “Patients who developed at most a grade 1 toxicity” value ([1]; during cycle one, N=17) was 23.5%, the “Patients who developed at most a grade 2 toxicity” value ([1]; during cycle one, N=17) was 29.4% and the “Patients who developed at most a grade 3 toxicity” value ([1]; during cycle one, N=17) was 29.4%. The “Patients who experienced no toxicities” value ([1]; during cycle one, N=17) was 11.8%, the “No. of dose delays” value ([1]; expansion cohort, 60 mg) was 0 and the “No. of dose reductions” value ([1]; expansion cohort, 60 mg) was 0. The “Grade 4 thrombocytopenia” value ([1]; in vivo) was “no grade 4 thrombocytopenia”, the “Recommended phase II dose (RP2D)” value ([1]; oral, three times weekly, three weeks of a 28-day cycle) was 60 mg and the “Clinically significant bleeding events” value ([1]; with thrombocytopenia) was “no clinically significant bleeding events”. For the same compound, the Stable disease ([2]; 30 mg) was 1 of 3, the Stable disease ([2]; 60 mg) was 7 of 11 and the “Follow up without progression” value ([2]; 1 of 5 patients with NF2 or meningioma) was > 27 months. For the same compound, the “Best response stable disease, proportion of patients” value ([2]; 15 evaluable patients, 95% CI 26.6–78.7) was 53%, the Stable disease ([2]; all evaluable patients) was 8 of 15 and the “Median PFS” value ([2]; evaluable NF2 or meningioma (n=5), 60 mg, 95% CI 1.9-not reached) was 9.1 months. The “Median PFS” value ([2]; non-CNS solid tumors (n=10), 95% CI 0.1–5.0) was 1.7 months, the “Median PFS” value ([2]; overall cohort, 95% CI 1.2–9.1) was 3.6 months and the Accumulation ([3]; 3 times weekly for three weeks of a four-week cycle) was “did not accumulate”. The “Cmax, AUC0–24 and AUC0–∞ between Day 1 and Day 19” value ([3]; cycle 1) was “remained consistent”, the AUC ([3]; human, plasma, patients with a grade 3 or 4 toxicity during cycle 1 and 2, p=0.036) was 16.4 µM·h and the AUC [3, 9] was 11.3 µM·h. For the same compound, the Cmax ([3]; human, plasma, patients with a grade 3 or 4 toxicity during cycle 1 and 2, p=0.0016) was 1540 nM, the Cmax [3, 9] was 1040 nM and the half-life ([3]; human, plasma, po) was 8 to 13 h. The “AUC0–24 and AUC0–∞ higher in 80 mg dose group compared to 60 mg dose group” value ([3]; only two patients at 80 mg) was “roughly 50%”, the “Median CL/F” value ([3]; patients with a grade 3 or 4 toxicity during cycle 1 and 2, p=0.0745) was 10.48 L/h and the “Median CL/F” value ([3]; patients without grade 3 or 4 toxicity) was 15.8 L/h. The “Blood brain barrier penetration” value ([4]; mouse model) was “crossed the blood brain barrier”, the “Blood brain barrier penetration” value ([4]; rodents) was “penetrates the blood brain barrier” and the “Activity compared with vorinostat” value [5] was “superior to that of vorinostat”. The Schwannoma growth [6] was “suppressed peripherally implanted xenograft and allograft schwannoma growth”, the “Proliferation of schwannoma and meningioma cell lines” value ([7]; cell cycle arrest at G2 and apoptosis) was “suppressed proliferation” and the AKT phosphorylation [7] was “decreased AKT phosphorylation”. The “Mean QTc change” value ([8]; patients with grade 1 QTc prolongation) was 27.4 ms, the “Grade 1 QTc prolongation” value ([8]; phase I study in hematologic malignancies) was 8 of 27 and the Thrombocytopenia ([8]; phase I trial in hematologic malignancies) was 16 of 27. The “Maximum tolerated dose (MTD)” value ([8]; three times weekly for three weeks of a 28-day cycle) was 40 mg.
